Structures are written as SMILES. A value given as a limit tells only on which side of the number the result lay.

T1 sequence (Q92633 whole entry, the tested form may be a part): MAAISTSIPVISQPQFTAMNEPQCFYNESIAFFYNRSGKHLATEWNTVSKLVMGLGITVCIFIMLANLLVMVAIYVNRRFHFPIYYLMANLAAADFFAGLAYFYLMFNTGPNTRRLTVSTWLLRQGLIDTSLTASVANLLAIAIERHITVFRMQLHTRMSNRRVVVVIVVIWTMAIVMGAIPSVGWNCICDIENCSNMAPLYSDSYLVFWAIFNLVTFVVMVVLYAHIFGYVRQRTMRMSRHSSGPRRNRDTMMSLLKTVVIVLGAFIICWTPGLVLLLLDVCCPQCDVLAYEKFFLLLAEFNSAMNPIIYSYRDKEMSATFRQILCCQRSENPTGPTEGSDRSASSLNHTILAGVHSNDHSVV

This assay has as its target T1, LPA1 (Homo sapiens, UniProt Q92633).
T1 construct: ProLink (PK) beta-galactosidase enzyme-fragment tag; host or cells: CHO-K1
Description: LPA1 calcium flux assay (LPA1 functional antagonist assay). Type of assay: cell-based. To be noted: PathHunter CHO-K1 EDG2 β-Arrestin cell line; calcium indicator dye; stimulated with EC80 concentration of LPA; FLIPR Tetra. As for the experimental part: Following overnight culture, cells were loaded with calcium indicator dye from the HitHunter Calcium No WashPLUS Assay kit (Eurofins DiscoverX Corporation, Cat #93-0091) for 45 minutes at 37° C. […] After compound addition, assay plates were equilibrated to room temperature for 30 minutes. […] IC50 values were determined by Chemical and Biological Information System from ChemInnovation Software, Inc. The compounds of this invention were tested for their activity to inhibit LPA1 as determined in an LPA1 functional antagonist assay as described herein.
(Calcium flux is commonly read through the fluorescence of an indicator in the cells.)
The term IC50 denotes the point on the concentration scale where inhibition reaches its midpoint. `CCCc1ccc(=O)n(Cc2c(-c3ncc(CN4CC(C(=O)O)CC(F)(F)C4)c(CC)n3)cnn2C)c1` (single isomer, unassigned) [Example 160, (S) or (R)-1-((4-ethyl-2-(1-methyl-5-((2-oxo-5-propylpyridin-1(2H)-yl)methyl)-1H-pyrazol-4-yl)pyrimidin-5-yl)methyl)-5,5-difluoropiperidine-3-carboxylic acid]: the IC50 was in the range of 500 to 5000 nM.
For `CCCc1ccc(=O)n(Cc2c(-c3ncc(CN4CC(C(=O)O)CC(F)(F)C4)c(CC)n3)cnn2C)c1` (single isomer, unassigned) [Example 161, (R) or (S)-1-((4-ethyl-2-(1-methyl-5-((2-oxo-5-propylpyridin-1(2H)-yl)methyl)-1H-pyrazol-4-yl)pyrimidin-5-yl)methyl)-5,5-difluoropiperidine-3-carboxylic acid] the value was 500 to 5000 nM; for `CCc1nc(-c2nnn(C)c2CNc2nccc(C3CCC3)n2)ccc1CN1CC(C(=O)O)CC(F)(F)C1` (single isomer, unassigned) [Example 162, (S) or (R)-1-((6-(5-(((4-cyclobutylpyrimidin-2-yl)amino)methyl)-1-methyl-1H-1,2,3-triazol-4-yl)-2-ethylpyridin-3-yl)methyl)-5,5-difluoropiperidine-3-carboxylic acid], less than 100 nM.
Regarding `CCc1nc(-c2nnn(C)c2CNc2nccc(C3CCC3)n2)ccc1CN1CC(C(=O)O)CC(F)(F)C1` (single isomer, unassigned) [Example 163, (R) or (S)-1-((6-(5-(((4-cyclobutylpyrimidin-2-yl)amino)methyl)-1-methyl-1H-1,2,3-triazol-4-yl)-2-ethylpyridin-3-yl)methyl)-5,5-difluoropiperidine-3-carboxylic acid], the IC50 lay in the range of 100 to 500 nM.
Turning to `CCCN(C)C(=O)OCc1c(-c2ccc(CN3CC(C(=O)O)CC(F)(F)C3)c(CC)n2)nnn1C` (single isomer, unassigned) [Example 164, 1-((2-ethyl-6-(1-methyl-5-(((methyl(propyl)carbamoyl)oxy)methyl)-1H-1,2,3-triazol-4-yl)pyridin-3-yl)methyl)-5,5-difluoropiperidine-3-carboxylic acid], the IC50 is greater than 5000 nM.
Turning to `CCCN(C)C(=O)OCc1c(-c2ccc(CN3CC(C(=O)O)CC(F)(F)C3)c(CC)n2)nnn1C` (single isomer, unassigned) [Example 165, 1-((2-ethyl-6-(1-methyl-5-(((methyl(propyl)carbamoyl)oxy)methyl)-1H-1,2,3-triazol-4-yl)pyridin-3-yl)methyl)-5,5-difluoropiperidine-3-carboxylic acid], the IC50 lay within 100 to 500 nM.
With `Cc1nc(-c2nnn(C)c2Cn2ccc(CC3CC3)c(C)c2=O)ccc1N1CC(CC(=O)O)CC(F)(F)C1` (stereo in doubt) [Example 3, (S)-2-(1-(6-(5-((4-(cyclopropylmethyl)-3-methyl-2-oxopyridin-1(2H)-yl)methyl)-1-methyl-1H-1,2,3-triazol-4-yl)-2-methylpyridin-3-yl)-5,5-difluoropiperidin-3-yl)acetic acid], the IC50 was in the range of 500 to 5000 nM.
With `CCCc1cn(Cc2c(-c3ccc(N4C[C@@H](CC(=O)O)CC(F)(F)C4)c(C)n3)nnn2C)ccc1=O` (stereo in doubt) [Example 43, (S)-2-(5,5-difluoro-1-(2-methyl-6-(1-methyl-5-((4-oxo-3-propylpyridin-1(4H)-yl)methyl)-1H-1,2,3-triazol-4-yl)pyridin-3-yl)piperidin-3-yl)acetic acid], the IC50 is greater than 5000 nM.
`CCCc1ccc(=O)n(Cc2c(-c3cnc(N4C[C@H](CC(=O)O)CC(F)(F)C4)cn3)nnn2C)c1` (stereo in doubt) [Example 56, (R)-2-(5,5-difluoro-1-(5-(1-methyl-5-((2-oxo-5-propylpyridin-1(2H)-yl)methyl)-1H-1,2,3-triazol-4-yl)pyrazin-2-yl)piperidin-3-yl)acetic acid]: the IC50 is greater than 5000 nM.
For `CCc1nc(-c2nnn(C)c2Cn2cc(CC(C)C)n(C)c2=O)ccc1N1C[C@H](CC(=O)O)CC(F)(F)C1` (stereo in doubt) [Example 66, 2-[(3R)-1-[2-ethyl-6-(1-methyl-5-{[3-methyl-4-(2-methylpropyl)-2-oxo-2,3-dihydro-1H-imidazol-1-yl]methyl}-1H-1,2,3-triazol-4-yl)pyridin-3-yl]-5,5-difluoropiperidin-3-yl]acetic acid] the value was less than 100 nM; for `CCc1nc(-c2nnn(C)c2CN2C[C@H](CC3CC3)OC2=O)ccc1N1C[C@H](CC(=O)O)CC(F)(F)C1` (stereo in doubt) [Example 69, 2-((R)-1-(6-(5-(((S)-5-(cyclopropylmethyl)-2-oxooxazolidin-3-yl)methyl)-1-methyl-1H-1,2,3-triazol-4-yl)-2-ethylpyridin-3-yl)-5,5-difluoropiperidin-3-yl)acetic acid], 500 to 5000 nM; for `Cc1nc(-c2nnn(C)c2CN2CCN(CC3CC3)C2=O)ccc1N1CC(CC(=O)O)CC(F)(F)C1` (stereo in doubt) [Example 70, (R)-2-(1-(6-(5-((3-(cyclopropylmethyl)-2-oxoimidazolidin-1-yl)methyl)-1-methyl-1H-1,2,3-triazol-4-yl)-2-methylpyridin-3-yl)-5,5-difluoropiperidin-3-yl)acetic acid], greater than 5000 nM.
As for `CCc1nc(-c2nnn(C)c2CNc2nncc(C3CC3)n2)ccc1N1C[C@H](CC(=O)O)CC(F)(F)C1` (stereo in doubt) [Example 112, (R)-2-(1-(6-(5-(((5-cyclopropyl-1,2,4-triazin-3-yl)amino)methyl)-1-methyl-1H-1,2,3-triazol-4-yl)-2-ethylpyridin-3-yl)-5,5-difluoropiperidin-3-yl)acetic acid], the IC50 lay in the range of 500 to 5000 nM.
As to `CCc1nc(-c2nnn(C)c2COc2noc(C3CC3)n2)ccc1N1CC(CC(=O)O)CC(F)(F)C1` (stereo in doubt) [Example 114, (R)-2-(1-(6-(5-(((5-cyclopropyl-1,2,4-oxadiazol-3-yl)oxy)methyl)-1-methyl-1H-1,2,3-triazol-4-yl)-2-ethylpyridin-3-yl)-5,5-difluoropiperidin-3-yl)acetic acid], the IC50 was greater than 5000 nM.
In the case of `CCc1nc(-c2nnn(C)c2CNc2noc(C3CC3)n2)ccc1N1CC(CC(=O)O)CC(F)(F)C1` (stereo in doubt) [Example 115, (R)-2-(1-(6-(5-(((5-cyclopropyl-1,2,4-oxadiazol-3-yl)amino)methyl)-1-methyl-1H-1,2,3-triazol-4-yl)-2-ethylpyridin-3-yl)-5,5-difluoropiperidin-3-yl)acetic acid], the IC50 was greater than 5000 nM.
Take `CCCc1cc(C)c(=O)n(Cc2c(-c3ccc(N4C[C@@H](CC(=O)O)CC(F)(F)C4)c(C)n3)nnn2C)c1` [Example 1, (S)-2-(5,5-difluoro-1-(2-methyl-6-(1-methyl-5-((3-methyl-2-oxo-5-propylpyridin-1(2H)-yl)methyl)-1H-1,2,3-triazol-4-yl)pyridin-3-yl)piperidin-3-yl)acetic acid]: the IC50 lay within 500 to 5000 nM.
Turning to `Cc1nc(-c2nnn(C)c2Cn2ccc(CC3CC3)c(C)c2=O)ccc1N1C[C@@H](CC(=O)O)CC(F)(F)C1` [Example 2, (S)-2-(1-(6-(5-((4-(cyclopropylmethyl)-3-methyl-2-oxopyridin-1(2H)-yl)methyl)-1-methyl-1H-1,2,3-triazol-4-yl)-2-methylpyridin-3-yl)-5,5-difluoropiperidin-3-yl)acetic acid], the IC50 fell in the range of 500 to 5000 nM.
As to `CCCc1ccc(=O)n(Cc2c(-c3ccc(N4C[C@@H](CC(=O)O)CC(F)(F)C4)c(C)n3)nnn2C)c1` [Example 4, (S)-2-(5,5-difluoro-1-(2-methyl-6-(1-methyl-5-((2-oxo-5-propylpyridin-1(2H)-yl)methyl)-1H-1,2,3-triazol-4-yl)pyridin-3-yl)piperidin-3-yl)acetic acid], the IC50 fell in the range of 100 to 500 nM.
For `CCCc1cccn(Cc2c(-c3ccc(N4C[C@@H](CC(=O)O)CC(F)(F)C4)c(C)n3)nnn2C)c1=O` [Example 5, (S)-2-(5,5-difluoro-1-(2-methyl-6-(1-methyl-5-((2-oxo-3-propylpyridin-1(2H)-yl)methyl)-1H-1,2,3-triazol-4-yl)pyridin-3-yl)piperidin-3-yl)acetic acid] the value was greater than 5000 nM; for `CCCc1ccc(=O)n(Cc2c(-c3ccc(N4C[C@@H](CC(=O)O)CC(F)(F)C4)c(CC)n3)nnn2C)c1` [Example 6, (S)-2-(1-(2-ethyl-6-(1-methyl-5-((2-oxo-5-propylpyridin-1(2H)-yl)methyl)-1 H-1,2,3-triazol-4-yl)pyridin-3-yl)-5,5-difluoropiperidin-3-yl)acetic acid], less than 100 nM; for `CCCc1ccc(=O)n(Cc2c(-c3ccc(N4C[C@H](CC(=O)O)CC(F)(F)C4)c(CC)n3)nnn2C)c1` [Example 7, (R)-2-(1-(2-ethyl-6-(1-methyl-5-((2-oxo-5-propylpyridin-1(2H)-yl)methyl)-1H-1,2,3-triazol-4-yl)pyridin-3-yl)-5,5-difluoropiperidin-3-yl)acetic acid], 500 to 5000 nM.
On to `CCCc1ccn(Cc2c(-c3ccc(N4C[C@@H](CC(=O)O)CC(F)(F)C4)c(CC)n3)nnn2C)c(=O)c1` [Example 8, (S)-2-(1-(2-ethyl-6-(1-methyl-5-((2-oxo-4-propylpyridin-1(2H)-yl)methyl)-1 H-1,2,3-triazol-4-yl)pyridin-3-yl)-5,5-difluoropiperidin-3-yl)acetic acid], for which the IC50 was greater than 5000 nM.
With `CCc1nc(-c2nnn(C)c2Cn2ccc(CC3CC3)cc2=O)ccc1N1C[C@@H](CC(=O)O)CC(F)(F)C1` [Example 9, (S)-2-(1-(6-(5-((4-(cyclopropyImethyl)-2-oxopyridin-1(2H)-yl)methyl)-1-methyl-1H-1,2,3-triazol-4-yl)-2-ethylpyridin-3-yl)-5,5-difluoropiperidin-3-yl)acetic acid], the IC50 is greater than 5000 nM.
